Data: ChEMBL document CHEMBL3425465, “Synthesis, antimalarial and antitubercular activities of meridianin derivatives” (Eur J Med Chem, 2015)
≈ marks a conversion by molar mass, not a printed value.

Columns and labels:
[1] = Retention time of the compound by HPLC analysis; type: physicochemical
Plasmodium falciparum [2] = experiment: Antiplasmodial activity against Plasmodium falciparum W2 infected in human RBC assessed as parasite growth inhibition measured as LDH activity after 72 hrs by plate reader analysis; type: functional, organism-based
Plasmodium falciparum [3] = experiment: Antiplasmodial activity against Plasmodium falciparum D6 infected in human RBC assessed as parasite growth inhibition measured as LDH activity after 72 hrs by plate reader analysis; type: functional, organism-based
[4] = system: Mycobacterium tuberculosis; experiment: Antitubercular activity against Mycobacterium tuberculosis H37Rv assessed as […] inhibition after 7 days by broth microdilution assay; type: functional; settings: 168 h

Row | Compound | Retention_time [1] | IC50 (Plasmodium falciparum [2]) | IC50 (Plasmodium falciparum [3]) | MIC90 [4]
1 | Cc1c(C)c(C)c(S(=O)(=O)n2cc(-c3ccnc(N)n3)c3ccccc32)c(C)c1C | 10 min |  |  | 
2 | Nc1nccc(-c2cn(S(=O)(=O)c3ccc(I)cc3)c3ccccc23)n1 | 8.8 min | Not Active | Not Active | 
3 | O=C1NC(c2c[nH]c3ccc(Br)cc23)Nc2ccccc21 (stereo not drawn) |  |  |  | 23.4 µM (≈ 8.01 µg/mL)
4 | Nc1nccc(-c2cn(S(=O)(=O)c3ccc([N+](=O)[O-])cc3)c3ccccc23)n1 | 7.43 min |  |  | 
5 | Nc1nccc(-c2cn(S(=O)(=O)c3ccc4c(c3)OCCO4)c3ccc(Br)cc23)n1 | 8 min | Not Active | Not Active | 
6 | COc1ccc(Br)cc1S(=O)(=O)n1cc(-c2ccnc(N)n2)c2ccccc21 | 8.38 min | Not Active | Not Active | 
7 | Nc1nccc(-c2cn(Cc3ccc(Cl)s3)c3ccc(Br)cc23)n1 |  |  |  | 76.6 µM (≈ 32.2 µg/mL)
8 | COCCn1cc(-c2ccnc(N)n2)c2cc(Br)ccc21 |  |  |  | 92.2 µM (≈ 32 µg/mL)
9 | Nc1nccc(-c2cn(S(=O)(=O)c3ccc4ccccc4c3)c3ccccc23)n1 | 8.31 min | Not Active | Not Active | 
10 | COc1ccc(S(=O)(=O)n2cc(-c3ccnc(N)n3)c3ccccc32)cc1OC | 6.92 min | Not Active | Not Active | 
11 | CC(C)(C)c1ccc(S(=O)(=O)n2cc(-c3ccnc(N)n3)c3ccccc32)cc1 | 9.09 min | Not Active | Not Active | 
12 | COc1ccc(S(=O)(=O)n2cc(-c3ccnc(N)n3)c3cc(Br)ccc32)cc1 | 8.08 min | Not Active | Not Active | 
13 | O=C1NC(c2c[nH]c3ccc(I)cc23)Nc2ccccc21 (stereo not drawn) |  |  |  | 5.2 µM (≈ 2.02 µg/mL)
14 | Nc1nccc(-c2cn(S(=O)(=O)c3cc(C(F)(F)F)cc(C(F)(F)F)c3)c3ccc(Br)cc23)n1 | 10.48 min | Not Active | Not Active | 
15 | Cc1noc(C)c1Cn1cc(-c2ccnc(N)n2)c2cc(Br)ccc21 |  |  |  | 80.6 µM (≈ 32.1 µg/mL)
16 | Nc1nccc(-c2cn(S(=O)(=O)c3cc(C(F)(F)F)cc(C(F)(F)F)c3)c3ccccc23)n1 | 7.87 min | Not Active | Not Active | 
17 | Nc1nccc(-c2cn(C(=O)c3ccccc3)c3ccc(Br)cc23)n1 |  |  |  | 163 µM (≈ 64 µg/mL)
18 | COc1ccc(S(=O)(=O)n2cc(-c3ccnc(N)n3)c3ccccc32)cc1 | 8.49 min | Not Active | Not Active | 
19 | Nc1nccc(-c2cn(S(=O)(=O)c3ccc(F)cc3F)c3ccccc23)n1 | 7.32 min | Not Active | Not Active | 
20 | CO[C@H]1/C=C/O[C@@]2(C)Oc3c(C)c(O)c4c(O)c(c(/C=N/N5CCN(C)CC5)c(O)c4c3C2=O)NC(=O)/C(C)=C\C=C\[C@H](C)[C@H](O)[C@@H](C)[C@@H](O)[C@@H](C)[C@H](OC(C)=O)[C@@H]1C [RIFAMPIN] |  |  |  | 0.07 µM (≈ 0.0576 µg/mL)
21 | Nc1nccc(-c2cn(S(=O)(=O)c3ccc(C(F)(F)F)cc3)c3ccccc23)n1 | 9.15 min | Not Active | Not Active | 
22 | Nc1nccc(-c2cn(S(=O)(=O)c3ccc(Cl)cc3Cl)c3ccccc23)n1 | 9.08 min | Not Active | Not Active | 
23 | Cc1cc(C)c(S(=O)(=O)n2cc(-c3ccnc(N)n3)c3ccccc32)c(C)c1 | 8.95 min | Not Active | Not Active | 
24 | Nc1nccc(-c2cn(S(=O)(=O)c3ccc4c(c3)OCCO4)c3ccccc23)n1 | 8.02 min | Not Active | Not Active | 
25 | Cc1c(C)c(C)c(S(=O)(=O)n2cc(-c3ccnc(N)n3)c3cc(Br)ccc32)c(C)c1C | 13.88 min |  |  | 
26 | Nc1nccc(-c2cn(S(=O)(=O)c3ccc(Br)cc3)c3ccccc23)n1 | 8.45 min | Not Active | Not Active | 
